Target: IGF-1R (Homo sapiens (Human), UniProt P08069)
Test: Example B-1: IGF-1R Assay (PC3 cells, IGF1 stimulation, AlphaLISA)
Type: cell-based
Details: 200 ng/mL IGF1 stimulation, read-out: Biological Activity against IGF-1R IC50
Experimental: 50K PC3 cells were seeded on day 1 in 50 μL of media in 96-well plate and incubated overnight at 37° C., 5% CO2. On day 2, all cells were expected to be at 80-90% confluency. Cells were starved for two hours by changing the media to 90 μL of EMEM serum-free media and incubated for 2 hours. Next, cells were treated with 10 μL of 10× concentrated and 3× serially diluted compounds for two hours. It makes 1× of compounds in 100 μL media. This was followed by stimulation of cells with 11×IGF1 for 30 min in 10 μL of serum-free EMEM media at the final concentration of 200 ng/mL.
The media was removed and replaced by 50 μL of 1× lysis buffer from the AlphaLISA kit (with 1× of cOmplete™ protease inhibitor). The plates were sealed, and cells were allowed to lyse for 10 min in the shaker before storing the plate at −20° C. until used. The AlphaLISA assay with processed cell lysates were performed as described in the protocol. Briefly, 10 μL of the undiluted sample were loaded to 384 well Optiplates and 5 μL of the acceptor mix (as described in the AlphaLISA kit) was added to each well. The plates were sealed and briefly vortexed followed by the incubation at RT for 3 hours. In the dark, 5 μL of donor mix was added to each well. All plates were sealed and stored at RT overnight. The plates were read in EnVision reader using standard AlphaLISA settings.
Compound activity was analyzed using CBIS data analysis suite (ChemInnovation, CA). Percentage inhibition was calculated using the following formula: % Inhibition=100%×(1−(mean RLU of test sample−mean RLU of vehicle control)/(mean RLU of EC80 control−mean RLU of vehicle control)). The activity for representative examples of the invention is shown in the following table, wherein A: IC50≤500 nM; B: 500 nM<IC50≤2 μM; C: 2 μM<IC50≤10 μM; D: IC50>10 μM.

IGF-1R, sequence (P08069 31-1367): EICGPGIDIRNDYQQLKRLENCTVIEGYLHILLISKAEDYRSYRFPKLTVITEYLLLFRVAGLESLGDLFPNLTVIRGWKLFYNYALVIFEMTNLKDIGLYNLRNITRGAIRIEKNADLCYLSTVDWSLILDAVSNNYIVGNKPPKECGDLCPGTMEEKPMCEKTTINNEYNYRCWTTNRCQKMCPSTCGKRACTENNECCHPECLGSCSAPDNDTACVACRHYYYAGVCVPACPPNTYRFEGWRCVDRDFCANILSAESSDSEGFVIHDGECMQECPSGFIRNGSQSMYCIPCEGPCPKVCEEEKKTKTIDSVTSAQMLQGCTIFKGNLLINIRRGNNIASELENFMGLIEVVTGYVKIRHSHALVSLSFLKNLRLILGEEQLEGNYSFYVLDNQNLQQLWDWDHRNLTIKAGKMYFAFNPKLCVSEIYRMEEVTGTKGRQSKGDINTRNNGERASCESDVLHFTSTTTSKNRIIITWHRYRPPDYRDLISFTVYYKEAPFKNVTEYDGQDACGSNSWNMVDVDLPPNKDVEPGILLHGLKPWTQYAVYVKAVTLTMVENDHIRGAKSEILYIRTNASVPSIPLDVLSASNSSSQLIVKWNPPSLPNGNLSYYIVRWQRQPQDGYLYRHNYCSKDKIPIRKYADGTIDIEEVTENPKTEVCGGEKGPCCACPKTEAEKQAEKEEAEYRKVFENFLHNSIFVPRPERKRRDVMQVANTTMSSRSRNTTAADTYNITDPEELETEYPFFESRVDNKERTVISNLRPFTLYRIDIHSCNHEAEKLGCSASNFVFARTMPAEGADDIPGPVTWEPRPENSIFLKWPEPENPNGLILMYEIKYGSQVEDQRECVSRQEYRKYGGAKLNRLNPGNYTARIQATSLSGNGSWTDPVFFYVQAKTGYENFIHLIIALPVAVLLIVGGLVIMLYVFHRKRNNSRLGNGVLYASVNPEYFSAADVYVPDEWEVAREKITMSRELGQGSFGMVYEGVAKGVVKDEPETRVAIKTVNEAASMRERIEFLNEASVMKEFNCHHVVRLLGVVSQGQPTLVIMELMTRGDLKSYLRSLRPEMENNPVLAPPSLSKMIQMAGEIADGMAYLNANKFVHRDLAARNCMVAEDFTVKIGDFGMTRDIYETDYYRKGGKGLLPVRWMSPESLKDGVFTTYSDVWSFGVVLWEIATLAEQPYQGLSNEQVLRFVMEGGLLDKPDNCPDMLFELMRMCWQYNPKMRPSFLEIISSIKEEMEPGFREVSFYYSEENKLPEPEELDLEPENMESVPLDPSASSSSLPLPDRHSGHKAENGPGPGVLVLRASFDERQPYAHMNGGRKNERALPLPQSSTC

IC50 [nM]	Compound
2000 to 10000	FC(F)(F)Oc1cccc2cc(Nc3ccnc(Nc4ccc(OCCCN5CCOCC5)cc4)n3)cnc12 [Compound 404, 2-[p-(3-morpholinopropoxy)phenylamino]-4-(8-trifluoromethoxy-3-quinolylamino)pyrimidine]
≤ 500	c1ccc2ncc(Nc3ccnc(Nc4ccc(OCCCN5CCOCC5)cc4)n3)cc2c1 [Compound 394, 2-[p-(3-morpholinopropoxy)phenylamino]-4-(3-quinolylamino)pyrimidine]
≤ 500	COc1cc(Nc2nccc(Nc3cc4cccc(F)c4[nH]c3=O)n2)cnc1N1CCOC(C)(C)C1 [Compound 160, 3-((2-((6-(2,2-dimethylmorpholino)-5-methoxypyridin-3-yl)amino)pyrimidin-4-yl)amino)-8-fluoroquinolin-2(1H)-one]
≤ 500	COc1cc(N2CCN(C)CC2)ccc1Nc1nccc(Nc2cnc3c(Cl)cccc3c2)n1 [Compound 467, 4-(8-chloro-3-quinolylamino)-2-[2-methoxy-4-(4-methyl-1-piperazinyl)phenylamino] pyrimidine]
2000 to 10000	O=S1(=O)CCN([C@H]2C[C@H](Oc3ccc(Nc4nccc(Nc5cnc6cc(Cl)ccc6c5)n4)cc3)C2)CC1 [Compound 350, 4-[(1r,3r)-3-{p-[4-(7-chloro-3-quinolylamino)-2-pyrimidinylamino]phenoxy}cyclobutyl]-1λ^6,4-thiazinane-1,1-dione]
≤ 500	Clc1cccc2cc(Nc3ccnc(Nc4ccc(OCCCN5CCOCC5)cc4)n3)cnc12 [Compound 416, 4-(8-chloro-3-quinolylamino)-2-[p-(3-morpholinopropoxy)phenylamino]pyrimidine]
≤ 500	CN(C)CC1COc2cc(Nc3nccc(Nc4cc5cccc(F)c5[nH]c4=O)n3)ccc2O1 (stereo not shown) [Compound 205, 3-(2-{2-[(dimethylamino)methyl]-2,3-dihydro-1,4-benzodioxin-6-ylamino}-4-pyrimidinylamino)-8-fluoro-1,2-dihydro-2-quinolinone]
≤ 500	CN(C)CC(=O)N1CCc2cc(Nc3nccc(Nc4cc5cccc(F)c5[nH]c4=O)n3)ccc21 [Compound 151, 3-((2-((1-(dimethylglycyl)indolin-5-yl)amino)pyrimidin-4-yl)amino)-8-fluoroquinolin-2(1H)-one]
≤ 500	c1ccc2ncc(Nc3ccnc(Nc4ccc(OCCCN5CCCCC5)c(OCC5CCOCC5)c4)n3)cc2c1 [Compound 418]
≤ 500	COc1cc(Nc2nccc(Nc3cnc4c(c3)CCCC43CCCC3)n2)ccc1OCCCN1CCCCC1 [Compound 370, 4-(6′,7′-dihydro-5′H-spiro[cyclopentane-1,8′-quinolin]-3′-ylamino)-2-[3-methoxy-4-(3-piperidinopropoxy)phenylamino] pyrimidine]
≤ 500	COc1cc(OCCCN2CCCCC2)ccc1Nc1nccc(Nc2cnc3ccccc3c2)n1 [Compound 20, 2-[2-methoxy-4-(3-piperidinopropoxy)phenylamino]-4-(3-quinolylamino)pyrimidine]
≤ 500	COc1cc(N2CCN(CC#N)CC2)ncc1Nc1ncc(F)c(Nc2cc3ccccc3nc2C(N)=O)n1 [Compound 493, 3-(2-{6-[4-(cyanomethyl)-1-piperazinyl]-4-methoxy-3-pyridylamino}-5-fluoro-4-pyrimidinylamino)-2-quinolinecarboxamide]
≤ 500	COc1cc(Nc2nccc(Nc3cnc4c(F)c(F)ccc4c3)n2)ccc1OCCCN1CCCCC1 [Compound 393, 4-(7,8-difluoro-3-quinolylamino)-2-[3-methoxy-4-(3-piperidinopropoxy)phenylamino]pyrimidine]
2000 to 10000	c1cc(Nc2cnc3cc(C4CC4)ccc3c2)nc(Nc2ccc(OCCCN3CCOCC3)cc2)n1 [Compound 405, 4-(7-cyclopropyl-3-quinolylamino)-2-[p-(3-morpholinopropoxy)phenylamino]pyrimidine]
2000 to 10000	FC(F)(F)c1ccc2cc(Nc3ccnc(Nc4ccc(OCCCN5CCOCC5)cc4)n3)cnc2c1 [Compound 395, 2-[p-(3-morpholinopropoxy)phenylamino]-4-[7-(trifluoromethyl)-3-quinolylamino]pyrimidine]
500 to 2000	O=S1(=O)CCN([C@H]2C[C@H](Oc3ccc(Nc4nccc(Nc5cnc6c(Cl)cccc6c5)n4)cc3)C2)CC1 [Compound 349]
≤ 500	COc1cc(Nc2nccc(Nc3cnc4c(c3)CC(C)CC4)n2)ccc1OCCCN1CCCCC1 (stereo not shown) [Compound 62, 2-[3-methoxy-4-(3-piperidinopropoxy)phenylamino]-4-(6-methyl-5,6,7,8-tetrahydro-3-quinolylamino)pyrimidine]
≤ 500	COc1cc(Nc2nccc(Nc3cc(F)c4ncccc4c3)n2)ccc1OCCCN1CCCCC1 [Compound 447, 4-(8-fluoro-6-quinolylamino)-2-[3-methoxy-4-(3-piperidinopropoxy)phenylamino] pyrimidine]
≤ 500	COc1cc(Nc2nccc(Nc3cnc4ccc(F)cc4c3)n2)ccc1OCCCN1CCCCC1 [Compound 427, 4-(6-fluoro-3-quinolylamino)-2-[3-methoxy-4-(3-piperidinopropoxy)phenylamino]pyrimidine]
≤ 500	O=S1(=O)CCN([C@H]2CC[C@@H](Oc3ccc(Nc4nccc(Nc5cnc6ccccc6c5)n4)cc3)CC2)CC1 [Compound 38, 4-[(1s,4s)-4-{p-[4-(3-quinolylamino)-2-pyrimidinylamino]phenoxy}cyclohexyl]-126,4-thiazinane-1,1-dione]

Compound	IC50 [nM]
COc1cc(Nc2ncc(F)c(Nc3cnc4ccc(Cl)cc4c3)n2)ccc1O[C@H]1C[C@@H](N(C)C)C1 [Compound 210, N4-(6-chloroquinolin-3-yl)-N2-(4-((1s,3s)-3-(dimethylamino)cyclobutoxy)-3-methoxyphenyl)-5-fluoropyrimidine-2,4-diamine]	≤ 500
COc1cc(Nc2nccc(Nc3cnc4c(cnn4C)c3)n2)ccc1O[C@H]1C[C@@H](N(C)C)C1 [Compound 280, 2-{3-methoxy-4-[(1s,3s)-3-(dimethylamino)cyclobutoxy]phenylamino}-4-(1-methyl-1H-1,2,7-triazainden-5-ylamino)pyrimidine]	≤ 500
COc1cc(Nc2nccc(Nc3cnc4[nH]ccc4c3)n2)ccc1O[C@H]1C[C@@H](N(C)C)C1 [Compound 301, 4-(1H-1,7-diazainden-5-ylamino)-2-{3-methoxy-4-[(1s,3s)-3-(dimethylamino)cyclobutoxy]phenylamino}pyrimidine]	≤ 500
COc1cc(Nc2nccc(Nc3cnc4cc(O)ccc4c3)n2)ccc1O[C@H]1C[C@H](N(C)C)C1 [Compound 326, 3-(2-{3-methoxy-4-[(1r,3r)-3-(dimethylamino)cyclobutoxy]phenylamino}-4-pyrimidinylamino)-7-quinolinol]	≤ 500
COc1cc(Nc2nccc(Nc3cnc4c(c3)CCC(C)(C)C4)n2)ccc1O[C@H]1C[C@H](N(C)C)C1 [Compound 338, 4-(7,7-dimethyl-5,6,7,8-tetrahydro-3-quinolylamino)-2-{3-methoxy-4-[(1r,3r)-3-(dimethylamino)cyclobutoxy]phenylamino}pyrimidine]	≤ 500
COc1cc(Nc2nccc(Nc3cnc4c(c3)C3CCC4CC3)n2)ccc1O[C@H]1C[C@H](N(C)C)C1 [Compound 75, 4-{3-azatricyclo[6.2.2.02,7]dodeca-2(7),3,5-trien-5-ylamino}-2-{3-methoxy-4-[(1r,3r)-3-(dimethylamino)cyclobutoxy]phenylamino}pyrimidine]	≤ 500
COc1cc(Nc2nccc(Nc3cnc4ccc(Br)cc4c3)n2)ccc1O[C@H]1C[C@H](N(C)C)C1 [Compound 199, 4-(6-bromo-3-quinolylamino)-2-{3-methoxy-4-[(1r,3r)-3-(dimethylamino)cyclobutoxy]phenylamino}pyrimidine]	≤ 500
COc1cc(Nc2nccc(Nc3cnc4c(c3)CC(C)(C)CC4)n2)ccc1O[C@H]1C[C@H](N(C)C)C1 [Compound 339, 4-(6,6-dimethyl-5,6,7,8-tetrahydro-3-quinolylamino)-2-{3-methoxy-4-[(1r,3r)-3-(dimethylamino)cyclobutoxy]phenylamino}pyrimidine]	≤ 500
COc1cc(Nc2nccc(Nc3cnc4[nH]cc(Br)c4c3)n2)ccc1O[C@H]1C[C@@H](N(C)C)C1 [Compound 203, 4-(3-bromo-1H-1,7-diazainden-5-ylamino)-2-{3-methoxy-4-[(1s,3s)-3-(dimethylamino)cyclobutoxy]phenylamino}pyrimidine]	≤ 500
COc1cc(Nc2ncc(F)c(Nc3cnc4cc(F)c(F)cc4c3)n2)ccc1O[C@H]1C[C@@H](N(C)C)C1 [Compound 173, N4-(6,7-difluoroquinolin-3-yl)-N2-(4-((1s,3s)-3-(dimethylamino)cyclobutoxy)-3-methoxyphenyl)-5-fluoropyrimidine-2,4-diamine]	≤ 500
COc1cc(Nc2nccc(Nc3cnc4c(c3)CCCO4)n2)ccc1O[C@H]1C[C@H](N2CCOCC2)C1 [Compound 360, 4-(3,4-dihydro-2H-1-oxa-8-azanaphth-6-ylamino)-2-{3-methoxy-4-[(1r,3r)-3-morpholinocyclobutoxy]phenylamino}pyrimidine]	≤ 500

— patent US20250171431A1, “HETEROCYCLIC INHIBITORS OF IGF-1R FOR TREATMENT OF DISEASE” (HORIZON THERAPEUTICS IRELAND DAC, priority 2023, published 2025)
